Measured values as given in patent US20190367516A1 (Bayer Pharma Aktiengesellschaft, priority 2015, published 2019).
Read-outs that look alike come from different tables or passages of the source.

Tests used:
human M2 receptor [1] = target: T1, human M2 receptor (Homo sapiens, UniProt P08172); settings: for Emax: read-out: Efficiency
T1 sequence (P08172 1-466): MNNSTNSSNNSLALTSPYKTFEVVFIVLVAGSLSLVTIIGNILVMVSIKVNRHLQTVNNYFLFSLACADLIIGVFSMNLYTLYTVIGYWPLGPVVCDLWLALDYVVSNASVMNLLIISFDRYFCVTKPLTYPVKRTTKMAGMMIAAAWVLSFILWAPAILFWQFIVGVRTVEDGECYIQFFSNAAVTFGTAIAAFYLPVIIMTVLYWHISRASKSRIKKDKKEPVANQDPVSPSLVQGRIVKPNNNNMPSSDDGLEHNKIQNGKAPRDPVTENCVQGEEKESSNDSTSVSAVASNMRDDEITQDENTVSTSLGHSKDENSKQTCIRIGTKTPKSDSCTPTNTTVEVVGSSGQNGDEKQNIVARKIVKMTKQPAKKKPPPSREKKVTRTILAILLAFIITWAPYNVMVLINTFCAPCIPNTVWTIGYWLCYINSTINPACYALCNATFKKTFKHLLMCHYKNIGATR

anaesthetized rats = assay: Effects on the heart rate in anaesthetized rats (B-9); format: in vivo, rat; settings: i.v. infusion via jugular vein over 5 min, dose not given, in some cases means of several determinations
Procedure: B-9. Effects of the Test Substances on the Heart Rate in Anaesthetized Rats
Male rats of the strain (WI) WU Br from the breeder Charles River are anaesthetized initially with a 4-5% isoflurane inhalation for approx. 3 min. Subsequently, anaesthesia is maintained using a 1.5% isoflurane inhalation. For this purpose, the anaesthetized animals are fixed on a heated operating plate. By means of visual inspection and between toe reflex, the depth of anaesthesia is checked.
For the application of the test substance, an i.v. route into the jugular vein is used. A caudal to cranial skin incision is then made longitudinally and both the cervical musculature and the salivary glands are severed. The right common carotid artery is exposed and blood supply is arrested both proximally and distally. Using microinstrumentation, a TIP catheter (1.2 F) is introduced into the vessel in order to measure the arterial pressure and the heart rate.
Initially, both parameters are monitored for 10 min in the basal state without substance addition. The substances to be investigated are dissolved in suitable solvent mixtures and subsequently administered at various dosages to a group of animals in each case via the jugular vein by an infusion pump over 5 min. A solvent-treated group is used as control under the same experimental conditions. The arterial blood pressure and heart rate with substance addition is determined for 20 min. The data are registered with the PowerLab system (AD instruments) and evaluated using the LabChart program (AD instruments).
The values determined in this manner for the percentage decrease in heart rate for individual working examples are given in Table 4 below (in some cases as means of a plurality of independent individual determinations): […]

human M2 receptor [2] = target: T1, human M2 receptor; format: cell-based; settings: α >1 = positive cooperativity
[3] = target: T2, Human Recombinant M2 Muscarinic Acetylcholine Receptor (Homo sapiens, UniProt P08172); assay: Selectivity test, Ca2+ release (Eurofins GPCRProfiler): allosteric modulator assay, M2 (B-3.2); format: cell-based; settings: for Selectivity (Shift EC50 M2/Shift EC50 M4): Table 2, quotient of allosteric shifts M2/M4; for Selectivity (Shift EC50 M2/Shift EC50 M1): Table 3, quotient of allosteric shifts M2/M1
T2 sequence (P08172 1-466): T1 sequence (P08172 1-466)
Procedure: B-3. Selectivity Test with Respect to Human Muscarinic Acetylcholine Receptors
Any potentially agonistic effect, or else positive allosteric effect, of the test substances on other human muscarinic acetylcholine receptors can be determined in a functional Ca^2+ release test (Eurofins; GPCRProfiler® Services in agonistic and allosteric mode for Mx Receptors; cat#: HTS600GPCR).
The substance test is conducted with a FLIPR^TETRA instrument (Molecular Devices).
After the agonism assay has ended, the assay plate is incubated at 25° C. for 7 min. After the incubation period, the positive allosteric modulator assay is initialized.
B-3.2. Allosteric Modulator Assay
In order to examine any positive or negative allosteric effect of the test substances on other human muscarinic acetylcholine receptors and the M2 receptor itself, every substance concentration is combined with an acetylcholine 8-point dose-response curve. Addition of agonist solution is again followed in turn by the measurement of cell fluorescence for a period of 180 sec. The shift in the acetylcholine dose-response curve (maximum shift in the EC50 of acetylcholine) is analysed and quantified by means of GraphPad PRISM (Sigmoidal dose-response (variable slope)−EC50). Finally, quotients of the allosteric shift for the M2 receptor and M4 receptor are formed, which function in turn as a measure of the respective selectivity.

[4] = Receptor activity EC50, M2-GIRK1/4 activation test, acetylcholine at EC20, allosteric potency, in some cases mean values from two or more determinations
[5] = shift in the acetylcholine dose-response curve (Allosteric EC50 shift, GraphPad PRISM)
[6] = test substance concentration 1 μM
[7] = test substance concentration 10 μM

| Compound | EC50 (human M2 receptor [1]; [4]) | Reduction in heart rate (%) (anaesthetized rats) | Cooperativity (alpha factor) (human M2 receptor [2]; [5]) | Selectivity (Shift EC50 M2/Shift EC50 M4) [3, 6] | Selectivity (Shift EC50 M2/Shift EC50 M4) [3, 7] | Selectivity (Shift EC50 M2/Shift EC50 M1) [3, 7] | Emax (human M2 receptor [1]) | EC50 (human M2 receptor [1]; Receptor activity EC50, allosteric potency at EC20 acetylcholine, M2-GIRK1/4 reporter cells, in some cases mean of two or more determinations) | Cooperativity (alpha factor) (human M2 receptor [2]; shift of acetylcholine dose-response curve (Allosteric EC50 shift)) |
| --- | --- | --- | --- | --- | --- | --- | --- | --- | --- |
| O=C(N[C@@H](C1CC1)C(F)(F)F)c1cn(-c2c(F)cc(F)cc2F)c2nc(N3CCNC3=O)ccc2c1=O [Example 323, N-[(1 S)-1-Cyclopropyl-2,2,2-trifluoroethyl]-4-oxo-7-(2-oxoimidazolidin-1-yl)-1-(2,4,6-trifluorophenyl)-1,4-dihydro-1,8-naphthyridine-3-carboxamide] | 14 nM | 13% | 16 | 52 | 44 | 31 | – | – | – |
| CC[C@@H](NC(=O)c1cn(-c2ccc(F)cc2F)c2nc(N3C[C@@H](O)CC3=O)ccc2c1=O)C(F)(F)F [Example 175] | 69 nM | 6% | 33 | 29 | 83 | 287 | 97.3% | – | – |
| O=C(N[C@@H](C1CC1)C(F)(F)F)c1cn(-c2c(F)cc(F)cc2F)c2nc(N3C[C@@H](O)[C@H](O)C3)ccc2c1=O [Example 590, N-[(1S)-1-Cyclopropyl-2,2,2-trifluoroethyl]-7-[(3R,4R)-3,4-dihydroxypyrrolidin-1-yl]-4-oxo-1-(2,4,6-trifluorophenyl)-1,4-dihydro-1,8-naphthyridine-3-carboxamide] | – | 13% | – | 7 | 33 | 30 | 100% | 15 nM | 43 |
